Experimental data reported in patent US8318489B2, “Prostacyclin directed differentiation of cardiomyocytes from human embryonic stem cells” (priority 2005, dated 2012).

Key:
Type in all cases: cell-based, human
hES cells [1] = experiment: Cardiomyocyte quantification via cytospin (MF-20 / αMHC staining); conditions: for cardiomyocyte yield compared to bSFS alone: L-IGF-I 5.0 ng/ml, AA 5.0 μM, FGF2 […] into bSFS
Description: EBs were washed twice with PBS (without calcium and magnesium) and dissociated to single cells using trypsin (Invitrogen). […] The cell pellet was resuspended in PBS and a cell count performed. 100,000 cells were spun at 500 rpm for 5 min onto glass slides at low acceleration using a cytospin system (Shandon). Adherent cells were fixed, stained and the total cell number (DAPI staining of cell nuclei) and the number of sarcomeric alpha myosin heavy chain positive cells (αMHC, MF-20 Ab, Hybridoma Bank, Iowa; 1:200 followed by respective rabbit-anti mouse Cy3-labeled secondary Ab 1:500, Zymed) were counted in at least 3 independent fields of view at 20× magnification with at least 300 nuclei per field; fields were randomly selected in the DAPI channel (Zeiss Axiovert 200M, Zeiss) avoiding bias towards cardiomyocyte content. The percentage of cardiomyocytes compared to the total cell nuclei number was calculated.
Readouts were performed on day 13. […] The percentage of cardiomyocytes was counted via cytospin and the cardiomyocyte yield was calculated from the total cell count per well and the percentage of cardiomyocytes. Results are presented in Table 2 which provides an analysis on day 12 EBs differentiated in the presence of respective media added with substances as indicated in the table. Differentiation was performed in suspension in a low attachment 6-well format. Average numbers per well of a 6-well plate are presented.

hES cells [2] = experiment: Embryoid body differentiation of hES cells, visual scoring of beating EBs; conditions: for effect on induction of cardiomyocytes: supplemented to DMEM3 (giving bSFS); for CM induction activity (number of beating areas): growth factor 10 ng/ml added to END2-CM, day 12, compared to END2-CM alone
Description: This procedure describes the formation of embryoid bodies (EB) from collagenase-derived hES cell cultures. After formation the EBs were then exposed to END2 conditioned medium (CM).
Enzymatically passaged hES cells grown on feeder cells were washed once with PBS^+ and treated with Collagenase IV (1 mg/ml) for 3-4 min at 37° C. The Collagenase IV solution was replaced by DMEM and the cells were mechanically dissociated with a pipette tip. Cells were then harvested using a cell scraper and the cell suspension was transferred to a 50 ml tube (Falcon). Cell clumps were collected by gravity and the supernatant was aspirated. Cells were resuspended in fresh DMEM medium aiming to uniformly disperse the cell clumps in the suspension. An equal volume of the cell suspension was then transferred to ultra low attachment plates (Costar). Usually 6-well plates were used and cells were cultured in 2 ml of medium. Alternatively, cells can be seeded into plates under conditions supporting cell adherence to induce differentiation of hES cells attached to a surface.
In suspension culture, EBs are formed in ultra low attachment plates in SF medium over night. After over night incubation SF medium was replaced by fresh SF medium or END2-CM respectively for further differentiation. Subsequent medium changes were performed every 3-4 days. Usually, cells were cultured over a period of 12-13 days before the visual analysis of the proportion of beating EBs under a microscope was performed followed by cell collection for additional readouts. Multiple beating areas on single EBs were not counted separately. Values are expressed as a percentage of contracting EBs compared to […] in a single well of a 6-well tray. Cell harvest and analysis at time points other then 12-13 days after EB formation is indicated in the respective examples and figures of this embodiment. For EB scoring and other analytical methods hES cell differentiation was performed in triplicates applying the same culture conditions (e.g. the same medium added) in 3 independent wells of a 6-well plate. An average value per well was calculated and presented.

hES cells [3] = experiment: Real time RT-PCR for cardiac markers (α-MHC, ANF)
Description: RNA extraction: EBs at the end of the twelve day period were harvested. […] Trizol (Invitrogen) was added before freezing the EBs at -80° C. to ease cell lysis. Frozen samples were thawed and […]. Chloroform was added to the sample and incubated for 3 min at room temperature. The sample was centrifuged for 15 min at 13000 rpm at 4° C. and the aqueous phase collected. An equal volume of 70% ethanol was added before the sample was loaded onto an RNeasy mini column (Qiagen). The column was centrifuged for 15 sec at ≧8000 g. The rest of the purification steps were performed according to manufacturer's instructions. RNA was eluted in RNase-free water. 5 μg of the RNA sample was then treated with DNase (Invitrogen) in a volume of 50 μl. The mixture was incubated at room temperature for 30 min and heat inactivated for 10 min at 80° C. before cooling rapidly on ice. […] Samples were incubated for 1 hour at 37° C. before the reaction was terminated for 5 min at 95° C. RT-PCR was performed using 100 ng of cDNA with the following conditions: Cycle 1 (40×) denaturation at 95° C. for 10 s, annealing at 58° C. for 30 s and extension at 72° C. for 45 s. Melting curve step was included at the end with the following conditions: […] The gene primers used are α-MHC (sense primer: […] NO: 1); antisense primer: […] (sense primer: […] NO: 3); antisense primer […] NO: 4)) and β-Actin (sense primer: […] […]

[4] = tested on: Transgenic hES cells carrying α-MHCneo; experiment: G418 selection of transgenic hES-derived cardiomyocytes, MF-20 staining
Description: Transgenic hES cells carrying α-MHCneo were differentiated in END-2 conditioned media as described in Example 8 and then selected with 200 µg/ml or 400 μg/ml G418 for various periods. Cells were dissociated by trypsin and plated onto chamber slides. Transgenic cardiomyocytes that were not selected with G418 were also plated as a control. Cells were then fixed by 2% paraformaldehyde and stained with the MF-20 antibody, which recognizes cardiac α-MHC. Cells were counterstained with haematoxylin to reveal nuclei. Cells […] for MF-20 staining in each slide preparation were counted and calculated as a percentage of total nuclei.

H3M11 cardiomyocytes = experiment: Microelectrode array recording of selected cardiomyocytes; conditions: 10 μM isoproterenol; from 46 beats/min before addition
From the text: H3M11, one of the transgenic hES lines carrying the mouse α-MHCneo transgene, was differentiated in END-2 conditioned media to induce cardiomyocytes and then selected with G418 for 1 week. G418-selected H3M11 cardiomyocytes were dissociated and plated on microelectrode array chips each containing 64 electrodes (Multi Channel Systems MCS GmbH, Reutlingen, Germany). Extracellular recordings were made with the MEA1060 amplifier and MC-Rack software. Sampling rate was 10 kHz. A control recording was made before addition of compounds.

[5] = insulin 0.1-10 μg/ml added to END2-CM

`CC(=O)O` [AA, acetic acid] was tested, and the “cardiomyocyte yield compared to bSFS alone” value (hES cells [1]) was “some increase”.

For “Transferrin: medium supplement, 0.0055 mg/ml Transferrin (Roche)”, the “effect on induction of cardiomyocytes” value (hES cells [2]) was “not inhibitory”.

In the case of “insulin: Insulin (Roche) spiked into END2-CM”, the “cardiomyocyte formation from hESC” value (hES cells [2]; insulin 10 μg/ml added to END2-CM) is reported as “complete inhibition”, the “cardiomyocyte formation from hESC” value (hES cells [2]; [5]) is reported as “dose dependent inhibition” and the “relative expression of early cardiomyocyte markers (MesP1, NRx2.5, ANF, α-MHC)” value (hES cells [3]; [5]) is reported as “dose dependent decrease in expression”.

With Igf2: recombinant human Igf2 (R&D) the “CM induction activity (number of beating areas)” value (hES cells [2]) was “enhance CM induction activity”.

With “FGF2: Basic Fibroblast Growth Factor; Invitrogen” the “cardiomyocyte yield compared to bSFS alone” value (hES cells [1]) was “some increase”.

In the case of `CN[C@@H]1[C@@H](O)[C@@H](O[C@@H]2[C@@H](O)[C@H](O[C@H]3O[C@H]([C@@H](C)O)[C@@H](O)[C@H](O)[C@H]3N)[C@@H](N)C[C@H]2N)OC[C@]1(C)O` [G418], the Percent cardiomyocytes ([4]; G418 200 μg/ml for 10 days) is reported as 99.02%, the Percent cardiomyocytes ([4]; G418 200 μg/ml for 16 days) is reported as 99.20% and the Percent cardiomyocytes ([4]; G418 400 μg/ml 13 days) is reported as 99.53%. The Percent cardiomyocytes ([4]; G418 400 μg/ml for 7 days) was 99.85% and the “cells positive for the cardiac marker” value ([4]; two different G418 concentrations for various days) was “greater than 99%”.

`O=[Se]([O-])[O-].[Na+].[Na+]` [Selenium, sodium Selenite] was tested, and the “effect on induction of cardiomyocytes” value (hES cells [2]) was “not inhibitory”.

In the case of “Scf: recombinant human Scf, stem cell factor (CytoLab)”, the “CM induction activity (number of beating areas)” value (hES cells [2]) is reported as “enhance CM induction activity”.

`CC(C)NCC(O)c1ccc(O)c(O)c1` (stereo not shown) [isoproterenol] showed a beating frequency (H3M11 cardiomyocytes) of 70 beats/min.

`CCCCC[C@H](O)/C=C/[C@@H]1[C@H]2C/C(=C/CCCC(=O)[O-])O[C@H]2C[C@H]1O.[Na+]` [PGI2, (5Z,9α,11α,13E,15S)-6,9-Epoxy-11,15-dihydroxyprosta-5,13-dien-1-oic acid Sodium salt] was tested, and the “percentage of the overall cell population that forms cardiomyocytes” value (hES cells [1]; bSFS+PGI2, cytospin MF20) was “equivalent to that observed in END2-CM cultures”, the cardiomyocyte inducing activity (hES cells [2]; PGI2 0.2 and 2.0 μM in bSFS) was “increase in cardiomyocyte inducing activity to levels similar to that observed with END2-CM” and the “percentage of beating EBs” value (hES cells [2]; PGI2 2, 20, 200, 2000 nM in DMEM3, day 12, in comparison with basic DMEM3) was “significant increases”. The “expression of cardiomyocyte marker genes α-MHC and ANF” value (hES cells [3]; bSFS+PGI2 compared to END-CM) was “equivalent, if not enhanced expression”.
